This is an account of results in patent US20060079453A1, “Hla binding peptides and their uses” (priority 2002, published 2006).

What all share (test): biochemical
Experiment [1] has as its target H-2Ld (Mus musculus, UniProt P01897). Format: binding, murine.
For experiment [2], the target named is H-2 Db (Mus musculus, UniProt P01899). Format: binding, murine. The following applies: Db.
The target of experiment [3] is HLA-B*4002 (Homo sapiens, UniProt P01889, A65T/A93T/A95T/D138N/D201E/D98Y/E176V/E204Q/E69K/K202T/N87E/Q56L/Q94N/R180L/S48T/Y33H/Y91S). Format: binding.
Experiment [4] deals with HLA-B*1801 (Homo sapiens, UniProt P01889, A329T/A93T/A95T/C349S/D201E/D54G/D98Y/E176V/E187T/E204Q/E69T/K202T/Q94N/R155S/R180L/S121R/V306I/Y140S/Y195H/Y33H/Y91S). Type of experiment: binding.
Experiment [5] addresses HLA-B*4403 (Homo sapiens, UniProt P01889, A223V/A65T/A93T/A95T/D201E/D98Y/E176V/E187L/E204Q/E69K/G107R/H137Y/K202T/L105A/L119I/N104T/N87E/Q56L/Q94N/R106L/R155S/R180L/S101N/S121R/S35A/S48T/T118I/V36M/W191S/Y140D/Y91S). Format: binding.
Experiment [6] deals with HLA-B*4501 (Homo sapiens, UniProt P01889, A329T/A65T/A93T/A95T/C349S/D138N/D201E/D98Y/E176V/E187L/E204Q/E69K/H137Y/K202T/L119W/N87E/Q56L/Q94N/R155S/R180D/S121R/S35A/S48T/V127L/V306I/V36M/W191S/Y140L/Y33H/Y91S). Type of experiment: binding.
Experiment [7] concerns the target H-2Kk (Mus musculus, UniProt P04223). Type of experiment: binding, murine.
Experiment [8] concerns the target HLA-B*4001 (Homo sapiens, UniProt P01889, A65T/A93T/A95T/D138N/D98Y/E176V/E69K/N87E/Q56L/Q94N/R180L/S121R/S35A/S48T/T167S/V36M/W171L/Y33H/Y91S). Type of experiment: binding.
Experiment [9] has as its target HLA-B*4402 (Homo sapiens, UniProt P01889, A223V/A65T/A93T/A95T/D201E/D98Y/E176V/E187L/E204Q/E69K/G107R/H137Y/K202T/L105A/L119I/N104T/N87E/Q56L/Q94N/R106L/R155S/R180D/S101N/S121R/S35A/S48T/T118I/V36M/W191S/Y140D/Y91S). Type of experiment: binding.
In experiment [10] the target is HLA-B*5401 (Homo sapiens, UniProt P01889, A329T/C349S/D138N/D201E/E176V/E187T/E204Q/E69G/I76V/K202T/L119W/R155S/R180L/S121T/S35A/S48A/V127L/V306I/V36M/Y140L). Type of experiment: binding. The following applies: B*5401 binding affinity (IC50).
The target of experiment [11] is HLA-B*5101 (Homo sapiens, UniProt P01889, A329T/A93T/A95T/C349S/D138N/D201E/D98Y/E187L/E204Q/E69T/G107R/I218V/K202T/L105A/L119W/N104I/Q94N/R106L/R155S/R180L/S101N/S121T/S35A/S48A/V306I/V36M/Y195H/Y91F). The following applies: B*5101 binding affinity (IC50).
For experiment [12], the target named is HLA-B*5301 (Homo sapiens, UniProt P01889, A329T/A93T/A95T/C349S/D201E/D98Y/E176V/E187L/E204Q/E69T/G107R/I218V/K202T/L105A/L119I/N104I/Q94N/R106L/R155S/R180L/S101N/S121R/S35A/S48A/T118I/V127L/V306I/V36M/Y140S/Y91F). Type of experiment: binding. The following applies: B*5301 binding affinity (IC50).
The target in experiment [13] is HLA-B*0702 (Homo sapiens, UniProt P01889). Type of experiment: binding. The following applies: B*0702 binding affinity (IC50).
For experiment [14], the target named is HLA-B*3501 (Homo sapiens, UniProt P01889, A329T/A93T/A95T/C349S/D201E/D98Y/E176V/E187L/E204Q/E69T/I218V/K202T/L119I/Q94N/R155S/R180L/S121R/S35A/S48A/T118I/V127L/V306I/V36M/Y140S/Y91F). The following applies: B*3501 binding affinity (IC50).
For experiment [15], the target named is HLA-DQ DQA1*0301/B*0302 (DQ8) (Homo sapiens, UniProt P01909+P01920, A209T/A45G/C70Q/D89A/DUP78-78/E183D/E77G/F237L/G63E/H199R/I129T/K197E/L178F/L74F/L98V/Q57E/Q76R/S185I/S97I/T217I/T49S/V73L/Y58L).

pIC50: −log10 of the molar value. Values joined by “and” are separate entries in the source; they are usually repeats but may differ in a detail not shown here. Equal values may be shown once. Read-outs that look alike come from different tables or passages of the source. No end group written: not given here.

Chain of H-2Ld (P01897 25-362): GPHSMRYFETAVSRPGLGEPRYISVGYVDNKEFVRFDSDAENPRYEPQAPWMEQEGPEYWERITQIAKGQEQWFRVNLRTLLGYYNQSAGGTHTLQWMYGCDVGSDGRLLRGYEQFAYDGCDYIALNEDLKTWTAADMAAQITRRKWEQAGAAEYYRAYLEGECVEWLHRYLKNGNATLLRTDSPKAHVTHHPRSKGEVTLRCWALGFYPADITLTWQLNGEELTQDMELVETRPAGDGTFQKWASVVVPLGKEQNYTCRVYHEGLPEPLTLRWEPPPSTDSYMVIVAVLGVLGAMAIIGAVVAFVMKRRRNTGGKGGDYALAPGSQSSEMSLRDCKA
Chain of H-2Ld (P61769 21-119, further chain): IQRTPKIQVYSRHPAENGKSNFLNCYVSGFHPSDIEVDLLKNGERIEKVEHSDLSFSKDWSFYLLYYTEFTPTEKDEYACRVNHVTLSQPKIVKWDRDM
Chain of H-2 Db (P61769 21-119): as the sequence (P61769 21-119, further chain) above
Chain of H-2 Db (P01899 25-362): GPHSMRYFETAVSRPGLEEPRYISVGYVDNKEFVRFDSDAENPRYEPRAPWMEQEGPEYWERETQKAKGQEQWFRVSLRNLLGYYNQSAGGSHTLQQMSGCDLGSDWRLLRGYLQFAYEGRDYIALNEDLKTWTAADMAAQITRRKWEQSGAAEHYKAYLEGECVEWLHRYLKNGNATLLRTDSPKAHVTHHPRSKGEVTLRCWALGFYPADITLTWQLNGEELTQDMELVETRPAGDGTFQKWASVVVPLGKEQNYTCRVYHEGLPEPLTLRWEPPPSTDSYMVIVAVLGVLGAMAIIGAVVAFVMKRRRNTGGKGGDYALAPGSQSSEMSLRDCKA
Chain of H-2Kk (P04223 22-369): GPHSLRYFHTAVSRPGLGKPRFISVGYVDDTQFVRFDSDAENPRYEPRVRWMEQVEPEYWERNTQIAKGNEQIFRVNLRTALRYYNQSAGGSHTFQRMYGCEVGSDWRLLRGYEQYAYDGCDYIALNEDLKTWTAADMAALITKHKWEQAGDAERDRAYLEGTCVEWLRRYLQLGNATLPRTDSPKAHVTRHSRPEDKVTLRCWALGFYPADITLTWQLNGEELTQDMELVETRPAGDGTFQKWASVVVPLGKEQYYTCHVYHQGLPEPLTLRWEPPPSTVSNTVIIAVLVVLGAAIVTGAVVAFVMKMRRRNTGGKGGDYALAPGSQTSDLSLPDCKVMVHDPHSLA
Chain of H-2Kk (P61769 21-119, further chain): as the sequence (P61769 21-119, further chain) above

In [1] (Ld), IPQSLDSWTSL had a pIC50 of 9.66.

With KAVYNYATM, the values for the pIC50 in [2] and in experiment [1] (Ld) were 8.68 and < 4.57, respectively.

Molecule `N=C(N)NCCC[C@H](NC(=O)[C@H](CCC(N)=O)NC(=O)[C@@H]1CCCN1C(=O)[C@@H](N)CCC(N)=O)C(=O)NCC(=O)N[C@@H](Cc1ccc(O)cc1)C(=O)N[C@@H](CCC(=O)O)C(=O)N[C@@H](CC(N)=O)C(=O)N[C@@H](Cc1ccccc1)C(=O)O` had a pIC50 in experiment [1] (Ld) of 6.50.

For the molecule NEILIRCII, the pIC50 in experiment [3] (B*4002) was 7.23; in experiment [4] (B*1801) it was 5.25; in [5] (B*4403), 6.59; in experiment [6] (B*4501), 5.49; in [7], 7.92.

Turning to SDYEGRLI, the pIC50 is 7.07 in experiment [3], < 4.61 in [4], 6.64 in experiment [5] and 9.22 in experiment [7].

With EEKHEKKHV, in experiment [7], the pIC50 was 6.55.

KAVANFATM: the pIC50 was 8.92 in experiment [2] and 4.57 in experiment [1] (Ld).

As for SENDRYRLL, the pIC50 in experiment [7] (read-out: Kk) was 7.89.

Take YEANGNLI: the pIC50 in [3] was 8.15; in experiment [8], 8.10; in experiment [4], 6.72; in experiment [9], 6.29; in experiment [7], 9.19.

Take KAVYNAATM: the pIC50 was 8.70 in [2] and < 4.57 in experiment [1] (Ld).

Take HETTYNSI: the pIC50 is 6.47 in [3] (B*4002); 5.78 in [4] (B*1801); 6.21 in experiment [9] (B*4402); 5.18 in [6] (B*4501); 8.74 in experiment [7].

Regarding SEAAYAKKI, the pIC50 is 6.51 in experiment [8] (B*4001); 5.07 in [4] (B*1801); 5.77 in experiment [9] (B*4402); 7.21 in [5] (B*4403); 8.41 in [7].

In the case of `CC(C)C[C@H](NC(=O)[C@H](C)NC(=O)[C@@H](NC(=O)[C@H](CC(C)C)NC(=O)[C@H](C)NC(=O)[C@@H](NC(=O)[C@@H](NC(=O)[C@H](CCCNC(=N)N)NC(=O)[C@@H]1CCCN1C(=O)[C@H](C)N)[C@@H](C)O)C(C)C)[C@@H](C)O)C(=O)O` [APRTVALTAL], the pIC50 was 4.77 in experiment [10]; 4.84 in experiment [11]; 4.21 in experiment [12]; 7.92 in experiment [13]; 5.36 in experiment [14].

For YEDTGKTI, the pIC50 in experiment [3] (B*4002) is 7.08; in experiment [8] (B*4001) it was 6.10; in [4] (B*1801), 4.85; in [9] (B*4402), 5.10; in experiment [6] (read-out: B*4501), 4.31; in experiment [7], 9.07.

Consider RPQASGVAM, for which, in experiment [1] (Ld), the pIC50 is 7.92.

In turn, RPQASQVYM showed a pIC50 in experiment [1] (Ld) of 8.42.

As for `CC(C)C[C@H](NC(=O)[C@@H]1CCCN1C(=O)[C@@H](NC(=O)[C@H](CCC(N)=O)NC(=O)[C@@H]1CCCN1C(=O)[C@H](CCCNC(=N)N)NC(=O)[C@@H](NC(=O)[C@@H]1CCCN1C(=O)[C@@H](N)Cc1ccccc1)C(C)C)C(C)C)C(=O)O`, the pIC50 in [10] is 7.68; in [11] it was 7.74; in [12], 7.31; in experiment [13] it was 7.77; in experiment [14], 8.42.

In the case of LPPLERLTI, the pIC50 in experiment [10] is 4.95; in experiment [11], 6.44; in experiment [12] it was 5.58; in experiment [13] it was 4.61; in experiment [14], 4.87.

In the case of YPHFMLPTNL, the pIC50 in experiment [1] (read-out: Ld) was 8.12.

QEKKRHVDL: the pIC50 is 4.20 in experiment [3] (B*4002); 4.80 in [8] (B*4001); 8.14 in [4] (B*1801); 6.35 in experiment [9] (B*4402); 4.90 in experiment [6] (B*4501); 6.59 in experiment [7].

With YENDIEKKI, the pIC50 in experiment [4] (B*1801) was 4.51; in experiment [9] (B*4402) it was 5.76; in experiment [5] (B*4403), 6.43; in [7] it was 8.42.

Regarding RPRGPGPGSEF, the pIC50 in experiment [10] was 5.56; in [11], < 4.83; in experiment [12], 4.71; in experiment [13] it was 7.96; in [14] it was 4.60.

`CC(C)C[C@H](NC(=O)[C@H](Cc1c[nH]cn1)NC(=O)[C@H](CCCNC(=N)N)NC(=O)[C@H](CCC(N)=O)NC(=O)[C@H](CCCCN)NC(=O)[C@H](CCC(=O)O)NC(=O)[C@H](CCC(=O)O)NC(=O)[C@@H]1CCCN1C(=O)[C@@H](N)CS)C(=O)O`: the pIC50 in experiment [10] was < 4.11; in [11] it was < 4.45; in experiment [12], < 3.96; in [13], 8.00; in experiment [14], < 4.28.

As for IDVWLGGLKENFLPY, in experiment [15], the pIC50 is < 5.55.

Take RPQASGVYM: the pIC50 in experiment [2] is < 4.36; in experiment [1] (Ld), 9.00 and 8.52.

With KAVYNFAAM, the pIC50 in [2] was 8.36; in experiment [1] (Ld), 4.57.

In [7], VESENKVV showed a pIC50 of 6.46.

Regarding `CSCC[C@H](NC(=O)[C@@H](NC(=O)[C@H](C)NC(=O)[C@H](Cc1ccccc1)NC(=O)[C@H](CC(N)=O)NC(=O)[C@H](Cc1ccc(O)cc1)NC(=O)[C@@H](NC(=O)[C@H](C)NC(=O)[C@@H](N)CCCCN)C(C)C)[C@@H](C)O)C(=O)O`, in experiment [1] (Ld), the pIC50 was < 4.57.

Consider RIPNASGVYM, for which, in experiment [1] (read-out: Ld), the pIC50 was 7.72.

RPQGSGVYM had a pIC50 in [1] (Ld) of 7.41.

Regarding FPGPGPGPL, the pIC50 in [10] is 4.52; in experiment [11], 5.63; in [12] it was 4.68; in [13], 5.80; in experiment [14], 6.37.

In experiment [7], NEEPSDKHI had a pIC50 of 7.40.

As for CPTVQASKL, the pIC50 in [10] was 4.66; in [11], 6.35; in experiment [12] it was 5.73; in experiment [13] it was 5.49; in experiment [14], 6.19.
